Experimental data as given in patent publication US9462805B2, “Herbicide-resistant proteins, encoding genes, and uses thereof” (Beijing Dabeinong Technology Group Co., Ltd., priority 2012, dated 2016).

Tests used:
[1] = system: Arabidopsis T1 plants transformed with 24DT02 nucleotide sequence; test: Herbicide resistance effect test of transgenic Arabidopsis T1 plants (24DT02); type: in vivo, Arabidopsis thaliana; details: number of T1 plants, genotype 24DT02; for Highly resistant: 560 g ae/ha (1-fold field concentration) sprayed, growth consistent with blank solvent 7 days after spraying; for Moderately resistant / Non-resistant / Lowly resistant: 560 g ae/ha sprayed; for Moderately resistant: curly rosette leaves 7 days after spraying; for Non-resistant: dead 14 days after spraying; for Lowly resistant: incapable of bolting 14 days after spraying
Experimental: (§1) On 7 days after planting (DAP) and 11 DAP respectively, the T1 plants (cotyledon stage and 2-4 leaves stage, respectively) were sprayed with 0.2% of Liberty herbicide solution (200 g ai/L glufosinate-ammonium) using DeVilbiss compressed air nozzle at a spraying volume of 10 ml/disc (703 L/ha) so as to provide effective amount of glufosinate-ammonium (280 g ai/ha) for each application. The survival plants (actively growing plants) were verified 4 to 7 days after the last spraying and transferred into the square pot (7 cm×7 cm) made from vermiculite and horses dung (3-5 plants per pot). The transplanted plants were covered with moisturizing mask for 3-4 days and placed in culture room at 22° C. or directly into the greenhouse as described above. Then the mask was removed and the plants were planted in greenhouse (22±5° C., 50±30% RH, 14 hours of lighting: 10 hours of darkness, minimum […] natural light+complement light) at least one day before testing the ability of 24DT02 to provide the resistance to phenoxy auxin herbicide.
(§2) 24DT02 gene was used to transform Arabidopsis for the first time. At first, T1 transformants were selected from the background of un-transformed seeds, using glufosinate-ammonium selection scheme. About 40000 T1 seeds were screened among which 195 strains of T1 generation positive transformants (PAT gene) were identified, i.e. the transformation efficiency was about 0.5%. Herbicide resistance effect tests to 2,4-D dimethyl ammonium salt and agroxone of Arabidopsis T1 plants transformed with 24DT02 nucleotide sequence, substituted 24DT02 nucleotide sequence, truncated 24DT02 nucleotide sequence, added 24DT02 nucleotide sequence, control nucleotide sequence respectively and wild-type Arabidopsis plants were performed after 18 days of planting.
(§3) Arabidopsis T1 plants transformed with 24DT02 nucleotide sequence, substituted 24DT02 nucleotide sequence, truncated 24DT02 nucleotide sequence, added 24DT02 nucleotide sequence and control nucleotide sequence respectively and wild-type Arabidopsis plants were sprayed with 2,4-D dimethyl ammonium salt (560 g ae/ha, 1-fold concentration in field), agroxone (560 g ae/ha, 1-fold concentration in field) and blank solvent (water). Resistance conditions of the plants were counted 7 days and 14 days after spraying. Plants with growth conditions consistent with blank solvent (water) 7 days after spaying were classified as highly resistant plants; Plants with curly rosette leaves 7 days after spaying were classified as moderately resistant plants; Plants incapable of bolting 14 days after spaying were classified as low-resistant plants and the dead plants 14 days after spaying were classified as non-resistant plants. Because each Arabidopsis T1 plant was an independent transformation event, significant differences of individual T1 responses were expected under a given dose.

[2] = system: Arabidopsis T1 plants transformed with truncated 24DT02 nucleotide sequence; test: Herbicide resistance effect test of transgenic Arabidopsis T1 plants (24DT02-t); type: in vivo, Arabidopsis thaliana; details: number of T1 plants, genotype 24DT02-t, 560 g ae/ha sprayed; for Moderately resistant: curly rosette leaves 7 days after spraying; for Non-resistant: dead 14 days after spraying; for Highly resistant: growth consistent with blank solvent 7 days after spraying; for Lowly resistant: incapable of bolting 14 days after spraying
Experimental: as §1, §2, §3

[3] = system: Arabidopsis T1 plants transformed with added 24DT02 nucleotide sequence; test: Herbicide resistance effect test of transgenic Arabidopsis T1 plants (24DT02-a); type: in vivo, Arabidopsis thaliana; details: number of T1 plants, genotype 24DT02-a, 560 g ae/ha sprayed; for Moderately resistant: curly rosette leaves 7 days after spraying; for Non-resistant: dead 14 days after spraying; for Highly resistant: growth consistent with blank solvent 7 days after spraying; for Lowly resistant: incapable of bolting 14 days after spraying
Experimental: as §1, §2, §3

[4] = system: Arabidopsis T1 plants transformed with control nucleotide sequence; test: Herbicide resistance effect test of Arabidopsis T1 plants (control sequence); type: in vivo, Arabidopsis thaliana; details: number of T1 plants, 560 g ae/ha sprayed; for Highly resistant: genotype Control (control sequence), growth consistent with blank solvent 7 days after spraying; for Moderately resistant / Non-resistant / Lowly resistant: genotype Control; for Moderately resistant: curly rosette leaves 7 days after spraying; for Non-resistant: dead 14 days after spraying; for Lowly resistant: incapable of bolting 14 days after spraying
Experimental: as §1, §2, §3

[5] = system: corn plants transfected with 24DT02 nucleotide sequence; test: Herbicide-resistance effect test of transgenic corn plants (24DT02; strains S1-S3); type: in vivo, maize; details: 21 days after spraying; for Normal development of prop roots / Abnormal development of prop roots: number of plants
Experimental: (§4) Herbicide resistance effects tests to 2,4-D dimethyl ammonium salt and agroxone of maize plants containing 24DT02 nucleotide sequence, 24DT02 substituted nucleotide sequence, 24DT02 truncated nucleotide sequence, 24DT02 added nucleotide sequence, control nucleotide sequence respectively and wild type maize plants (stages V3-V4) were performed respectively.
(§5) Maize plants containing 24DT02 nucleotide sequence, 24DT02 substituted nucleotide sequence, 24DT02 truncated nucleotide sequence, 24DT02 added nucleotide sequence, control nucleotide sequence respectively and wild type maize plants were taken and spayed with 2,4-D dimethyl ammonium salt (8960 g ae/ha, 16-folds concentration in field), agroxone (8960 g ae/ha, 16-folds concentration in field) and blank solvent (water) respectively. Prop root development was counted 21 days after spaying. Three strains (S1, S2, and S3) of corn plants transfected with 24DT02 nucleotide sequence, two strains (S4 and S5) of corn plants transfected with 24DT02 substituted nucleotide sequence, two strains (S6 and S7) of corn plants transfected with 24DT02 truncated nucleotide sequence, two strains (S8 and S9) of corn plants transfected with 24DT02 added nucleotide sequence, two strains (S10 and S11) of corn plants transfected with control nucleotide sequence and 1 strain of wild type (CK) corn were selected and 10-15 plants from each stain were tested.

[6] = system: corn plants transfected with 24DT02 substituted nucleotide sequence; test: Herbicide-resistance effect test of transgenic corn plants (substituted 24DT02; strains S4, S5); type: in vivo, maize; details: 8960 g ae/ha sprayed, 21 days after spraying; for Abnormal development of prop roots / Normal development of prop roots: number of plants
Experimental: as §4, §5

[7] = system: corn plants transfected with 24DT02 added nucleotide sequence; test: Herbicide-resistance effect test of transgenic corn plants (added 24DT02; strains S8, S9); type: in vivo, maize; details: 8960 g ae/ha sprayed, 21 days after spraying; for Abnormal development of prop roots / Normal development of prop roots: number of plants
Experimental: as §4, §5

[8] = system: corn plants transfected with control nucleotide sequence; test: Herbicide-resistance effect test of corn plants (control sequence; strains S10, S11); type: in vivo, maize; details: 8960 g ae/ha sprayed, 21 days after spraying; for Abnormal development of prop roots / Normal development of prop roots: number of plants
Experimental: as §4, §5

[9] = corn strain S1 (24DT02), 8960 g ae/ha sprayed
[10] = corn strain S2 (24DT02), 8960 g ae/ha sprayed
[11] = corn strain S3 (24DT02), 8960 g ae/ha sprayed
[12] = corn strain S1 (24DT02), 8960 g ae/ha (16-fold field concentration) sprayed at V3-V4
[13] = corn strain S4 (substituted 24DT02)
[14] = corn strain S5 (substituted 24DT02)
[15] = corn strain S10 (control sequence)
[16] = corn strain S11 (control sequence)

CNC.O=C(O)COc1ccc(Cl)cc1Cl [2,4-D dimethyl ammonium salt]
Highly resistant [1]: 9
Moderately resistant [1]: 4
Non-resistant [1]: 5
Lowly resistant [1]: 0
Moderately resistant [2]: 5
Non-resistant [2]: 4
Highly resistant [2]: 7
Lowly resistant [2]: 0
Moderately resistant [3]: 3
Non-resistant [3]: 3
Highly resistant [3]: 10
Lowly resistant [3]: 2
Highly resistant [4]: 0
Moderately resistant [4]: 0
Non-resistant [4]: 18
Lowly resistant [4]: 0
Ratio of the normally developed prop roots [5, 9]: 81.25%
Ratio of the normally developed prop roots [5, 10]: 91.67%
Ratio of the normally developed prop roots [5, 11]: 85.71%
Normal development of prop roots [5, 12]: 13
Abnormal development of prop roots [5, 9]: 3
Abnormal development of prop roots [5, 10]: 1
Normal development of prop roots [5, 10]: 11
Abnormal development of prop roots [5, 11]: 2
Normal development of prop roots [5, 11]: 12
Ratio of the normally developed prop roots [6, 13]: 87.50%
Ratio of the normally developed prop roots [6, 14]: 100.00%
Abnormal development of prop roots [6, 13]: 2
Normal development of prop roots [6, 13]: 14
Abnormal development of prop roots [6, 14]: 0
Normal development of prop roots [6, 14]: 15
Ratio of the normally developed prop roots ([7]; corn strain S8 (added 24DT02)): 80.00%
Ratio of the normally developed prop roots ([7]; corn strain S9 (added 24DT02)): 78.57%
Abnormal development of prop roots ([7]; corn strain S8 (added 24DT02)): 3
Normal development of prop roots ([7]; corn strain S8 (added 24DT02)): 12
Abnormal development of prop roots ([7]; corn strain S9 (added 24DT02)): 3
Normal development of prop roots ([7]; corn strain S9 (added 24DT02)): 11
Ratio of the normally developed prop roots [8, 15]: 0%
Ratio of the normally developed prop roots [8, 16]: 0%
Abnormal development of prop roots [8, 15]: 10
Normal development of prop roots [8, 15]: 0
Abnormal development of prop roots [8, 16]: 11
Normal development of prop roots [8, 16]: 0

Cc1cc(Cl)ccc1OCC(=O)O [agroxone]
Highly resistant [1]: 8
Moderately resistant [1]: 6
Non-resistant [1]: 4
Lowly resistant [1]: 2
Moderately resistant [2]: 4
Non-resistant [2]: 4
Highly resistant [2]: 8
Lowly resistant [2]: 2
Moderately resistant [3]: 5
Non-resistant [3]: 3
Highly resistant [3]: 8
Lowly resistant [3]: 1
Highly resistant [4]: 0
Moderately resistant [4]: 0
Non-resistant [4]: 17
Lowly resistant [4]: 0
Ratio of the normally developed prop roots [5, 9]: 87.50%
Ratio of the normally developed prop roots [5, 10]: 100.00%
Ratio of the normally developed prop roots [5, 11]: 92.31%
Normal development of prop roots [5, 12]: 14
Abnormal development of prop roots [5, 9]: 2
Abnormal development of prop roots [5, 10]: 0
Normal development of prop roots [5, 10]: 12
Abnormal development of prop roots [5, 11]: 1
Normal development of prop roots [5, 11]: 12
Ratio of the normally developed prop roots [6, 13]: 81.25%
Ratio of the normally developed prop roots [6, 14]: 93.33%
Abnormal development of prop roots [6, 13]: 3
Normal development of prop roots [6, 13]: 13
Abnormal development of prop roots [6, 14]: 1
Normal development of prop roots [6, 14]: 14
Ratio of the normally developed prop roots ([7]; corn strain S8 (added 24DT02)): 86.67%
Ratio of the normally developed prop roots ([7]; corn strain S9 (added 24DT02)): 84.62%
Abnormal development of prop roots ([7]; corn strain S8 (added 24DT02)): 2
Normal development of prop roots ([7]; corn strain S8 (added 24DT02)): 13
Abnormal development of prop roots ([7]; corn strain S9 (added 24DT02)): 2
Normal development of prop roots ([7]; corn strain S9 (added 24DT02)): 11
Ratio of the normally developed prop roots [8, 15]: 0%
Ratio of the normally developed prop roots [8, 16]: 0%
Abnormal development of prop roots [8, 15]: 10
Normal development of prop roots [8, 15]: 0
Abnormal development of prop roots [8, 16]: 10
Normal development of prop roots [8, 16]: 0
